The text below walks through data of ChEMBL document CHEMBL1135703, “Synthesis and biological activity of a novel class of small molecular weight peptidomimetic competitive inhibitors of protein tyrosine phosphatase 1B” (2002).

The target in experiment [1] is T1, Tyrosine-protein phosphatase non-receptor type 11 (Mus musculus) (UniProt P35235).
T1 sequence (whole entry): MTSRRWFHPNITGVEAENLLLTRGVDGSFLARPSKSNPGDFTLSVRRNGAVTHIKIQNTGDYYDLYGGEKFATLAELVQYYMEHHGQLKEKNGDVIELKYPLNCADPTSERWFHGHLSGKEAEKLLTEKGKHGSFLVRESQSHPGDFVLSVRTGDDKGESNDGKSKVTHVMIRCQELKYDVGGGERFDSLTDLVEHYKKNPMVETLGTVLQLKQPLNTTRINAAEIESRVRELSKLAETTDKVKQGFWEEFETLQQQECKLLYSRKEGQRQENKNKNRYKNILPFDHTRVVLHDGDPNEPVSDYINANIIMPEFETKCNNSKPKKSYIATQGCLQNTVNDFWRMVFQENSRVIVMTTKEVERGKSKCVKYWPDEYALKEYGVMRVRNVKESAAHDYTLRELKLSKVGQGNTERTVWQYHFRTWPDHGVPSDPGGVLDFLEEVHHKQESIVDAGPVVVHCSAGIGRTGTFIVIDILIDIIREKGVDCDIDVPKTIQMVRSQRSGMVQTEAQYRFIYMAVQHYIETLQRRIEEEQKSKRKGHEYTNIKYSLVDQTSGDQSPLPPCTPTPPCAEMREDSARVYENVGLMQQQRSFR
Description: Percent inhibition of Tyrosine phosphatase SHP2 SH2 domain containing PTP involved in insulin uM. Conditions: concentration not given here. The arrangement: concentration or dose not given beside the values.

Experiment [2] concerns the target Receptor-type tyrosine-protein phosphatase F (Homo sapiens) (UniProt P10586). Description: Percent inhibition of Protein-tyrosine phosphatase Lar assayed at 100 uM.
The target of experiment [3] is T2, Tyrosine-protein phosphatase non-receptor type 1 (Rattus norvegicus) (UniProt P20417).
T2 sequence (whole entry): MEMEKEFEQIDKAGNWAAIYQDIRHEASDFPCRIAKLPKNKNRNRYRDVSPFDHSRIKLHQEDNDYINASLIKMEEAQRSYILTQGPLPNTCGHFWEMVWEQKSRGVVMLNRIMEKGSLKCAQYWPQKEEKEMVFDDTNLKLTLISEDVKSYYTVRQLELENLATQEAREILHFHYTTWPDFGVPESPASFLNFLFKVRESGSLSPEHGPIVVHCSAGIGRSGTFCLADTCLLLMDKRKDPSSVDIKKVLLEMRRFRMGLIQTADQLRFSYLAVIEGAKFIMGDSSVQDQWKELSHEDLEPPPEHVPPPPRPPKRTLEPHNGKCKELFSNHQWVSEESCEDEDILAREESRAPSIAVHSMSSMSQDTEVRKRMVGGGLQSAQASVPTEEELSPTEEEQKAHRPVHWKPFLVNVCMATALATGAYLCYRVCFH
Description: Percent inhibition of Protein-tyrosine phosphatase 1 (PTP) assayed at 100 uM.

Sequence of Receptor-type tyrosine-protein phosphatase F (Homo sapiens) (P10586 whole entry): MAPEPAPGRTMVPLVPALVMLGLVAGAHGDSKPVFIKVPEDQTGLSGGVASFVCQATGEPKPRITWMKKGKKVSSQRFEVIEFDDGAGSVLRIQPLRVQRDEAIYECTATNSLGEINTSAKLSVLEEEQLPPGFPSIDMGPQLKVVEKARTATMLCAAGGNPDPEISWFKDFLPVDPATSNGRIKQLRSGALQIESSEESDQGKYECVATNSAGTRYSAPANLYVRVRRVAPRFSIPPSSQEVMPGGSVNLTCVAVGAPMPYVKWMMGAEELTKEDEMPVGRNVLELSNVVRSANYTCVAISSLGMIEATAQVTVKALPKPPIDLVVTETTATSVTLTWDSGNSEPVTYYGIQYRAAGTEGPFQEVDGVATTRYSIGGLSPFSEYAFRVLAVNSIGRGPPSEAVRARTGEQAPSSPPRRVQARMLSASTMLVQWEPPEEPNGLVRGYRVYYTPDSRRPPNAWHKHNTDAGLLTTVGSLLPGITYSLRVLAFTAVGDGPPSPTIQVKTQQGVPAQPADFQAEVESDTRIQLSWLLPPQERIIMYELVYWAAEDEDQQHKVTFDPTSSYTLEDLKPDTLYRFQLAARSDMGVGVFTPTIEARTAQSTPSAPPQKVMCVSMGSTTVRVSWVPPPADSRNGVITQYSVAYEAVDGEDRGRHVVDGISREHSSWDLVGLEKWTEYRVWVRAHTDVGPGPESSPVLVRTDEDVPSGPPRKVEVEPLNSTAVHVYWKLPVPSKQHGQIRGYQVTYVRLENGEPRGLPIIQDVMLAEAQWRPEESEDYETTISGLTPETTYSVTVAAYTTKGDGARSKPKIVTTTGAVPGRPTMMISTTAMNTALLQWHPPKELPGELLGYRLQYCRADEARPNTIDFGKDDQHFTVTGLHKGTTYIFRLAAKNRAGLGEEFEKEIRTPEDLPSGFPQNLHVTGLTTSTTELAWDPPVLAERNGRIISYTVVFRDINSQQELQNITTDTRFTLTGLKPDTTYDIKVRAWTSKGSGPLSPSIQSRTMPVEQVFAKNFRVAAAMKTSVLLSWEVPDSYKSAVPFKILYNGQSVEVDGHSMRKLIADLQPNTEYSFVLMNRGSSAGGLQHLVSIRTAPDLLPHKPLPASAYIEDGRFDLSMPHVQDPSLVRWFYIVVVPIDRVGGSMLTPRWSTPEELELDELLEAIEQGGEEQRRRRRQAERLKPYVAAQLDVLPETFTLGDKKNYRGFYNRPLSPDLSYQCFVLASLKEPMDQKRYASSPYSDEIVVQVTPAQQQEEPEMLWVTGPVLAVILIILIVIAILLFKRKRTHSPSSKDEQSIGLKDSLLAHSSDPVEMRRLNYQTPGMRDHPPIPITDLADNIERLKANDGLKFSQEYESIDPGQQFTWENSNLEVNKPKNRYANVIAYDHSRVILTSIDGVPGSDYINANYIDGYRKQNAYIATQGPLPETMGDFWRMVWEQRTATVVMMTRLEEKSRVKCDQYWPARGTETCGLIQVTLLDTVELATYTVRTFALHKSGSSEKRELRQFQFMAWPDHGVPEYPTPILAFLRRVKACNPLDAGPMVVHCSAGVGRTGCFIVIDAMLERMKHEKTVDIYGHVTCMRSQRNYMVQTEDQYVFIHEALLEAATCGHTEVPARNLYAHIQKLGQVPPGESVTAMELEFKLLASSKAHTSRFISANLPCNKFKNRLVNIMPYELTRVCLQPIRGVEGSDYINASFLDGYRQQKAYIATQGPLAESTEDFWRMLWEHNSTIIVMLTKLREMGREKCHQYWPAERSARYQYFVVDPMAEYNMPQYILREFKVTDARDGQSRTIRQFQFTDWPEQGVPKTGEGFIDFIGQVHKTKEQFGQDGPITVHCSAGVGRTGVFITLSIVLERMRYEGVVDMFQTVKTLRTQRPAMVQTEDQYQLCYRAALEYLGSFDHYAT

For orientation: inhibition means how much of the control response was suppressed. On to `O=C(O)CCC(=O)NC(Cc1ccc(OC(C(=O)O)C(=O)O)cc1)C(=O)NCCOc1ccccc1` (stereo not drawn), for which the inhibition in experiment [1] is 34%; in experiment [2] it was 4%; in experiment [3] it was 57%.
On the same counts, the results for `CCCCCNC(=O)C(Cc1ccc(OC(C(=O)O)C(=O)O)cc1)NC(=O)[C@H](CC(=O)O)NC(=O)CCCCC` (stereo partly drawn) are 37%, 10% and 91%.
On the same counts, the results for `O=C(O)CCC(=O)NC(Cc1ccc(OC(C(=O)O)C(=O)O)cc1)C(=O)NCc1ccc2c(c1)OCO2` (stereo not drawn) are 12%, 6% and 63%.
Consider `CCCCCNC(=O)C(Cc1ccc(OC(C(=O)O)C(=O)O)cc1)NC(=O)[C@H](CC(=O)O)NC(=O)OC(C)(C)C` (stereo partly drawn), for which the inhibition in experiment [1] is 12%; in experiment [2] it was 10%; in experiment [3], 90%.
As for `CCCCCNC(=O)C(Cc1ccc(OC(C(=O)O)C(=O)O)cc1)NC(=O)C1C2CCC(C2)[C@@H]1C(=O)O` (stereo partly drawn), the inhibition in experiment [1] was 5%; in experiment [2], 8%; in experiment [3] it was 37%.
For the compound `CCCCCNC(=O)C(Cc1ccc(OC(C(=O)O)C(=O)O)cc1)NC(=O)[C@H](CCC(=O)O)NC(=O)CCC(=O)O` (stereo partly drawn), the inhibition in experiment [1] is 28%; in experiment [2], 10%; in experiment [3], 96%.
Regarding `CCCCCNC(=O)C(Cc1ccc(OC(C(=O)OCC)C(=O)OCC)cc1)NC(=O)CCC(=O)O` (stereo not drawn), the inhibition worked out at 0% in experiment [1] and 1% in experiment [3].
In the case of `CCCCCNC(=O)C(Cc1ccc(OC(C(=O)O)C(=O)O)cc1)NC(=O)[C@H](Cc1ccc(OC)cc1)NC(=O)OC(C)(C)C` (stereo partly drawn), the inhibition in experiment [1] was 9%; in experiment [2], 30%; in experiment [3], 90%.
As to `CCCCCNC(=O)C(Cc1ccc(C=C(C(=O)O)C(=O)O)cc1)NC(=O)CCC(=O)O` (stereo not drawn), the figures for the inhibition in experiment [1], in experiment [2] and in experiment [3] were 52%, 2% and 33%, respectively.
In the same order, the values of `CCCCCNC(=O)C(Cc1ccc(OC(C(=O)O)C(=O)O)cc1)NC(=O)[C@H](Cc1ccc(OC)cc1)NC(=O)CCC(=O)O` (stereo partly drawn) are 33%, 22% and 98%.
As for `CCCCCNC(=O)C(CCc1ccc(OC(C(=O)O)C(=O)O)cc1)NC(=O)CCC(=O)O` (stereo not drawn), the inhibition came out at 10% in experiment [1], 0% in experiment [2] and 18% in experiment [3].
As to `CCCCCNC(=O)C(Cc1ccc(OC(C(=O)O)C(=O)O)cc1)NC(=O)CC1(CC(=O)O)CCCC1` (stereo not drawn), the inhibition in experiment [1] turned out to be 18%; in experiment [2], 9%; in experiment [3], 72%.
In experiment [3], `CCCCCNC(=O)C(Cc1ccc(OS(C)(=O)=O)cc1)NC(=O)CCC(=O)O` (stereo not drawn) had an inhibition of 0%.
Regarding `NS(=O)(=O)c1ccc(CCNC(=O)C(Cc2ccc(OC(C(=O)O)C(=O)O)cc2)NC(=O)CCC(=O)O)cc1` (stereo not drawn), the inhibition in experiment [1] was 17%; in experiment [2], 5%; in experiment [3] it was 63%.
On the same counts, the results for `O=C(O)CCC(=O)NC(Cc1ccc(OC(C(=O)O)C(=O)O)cc1)C(=O)NCc1ccc(C(=O)O)cc1` (stereo not drawn) are 58%, 2% and 56%.
As for `CCCCCNC(=O)C(Cc1ccc(OS(=O)(=O)C(F)(F)F)cc1)NC(=O)CCC(=O)O` (stereo not drawn), the inhibition in experiment [3] turned out to be 0%.
In the case of `CCCCCNC(=O)[C@@H](Cc1ccc(OC(C(=O)O)C(=O)O)cc1)NC(=O)CCC(=O)O`, the inhibition in experiment [1] is 4%; in experiment [2] it was 1%; in experiment [3], 39%.
On the same counts, the results for `O=C(O)CCC(=O)NC(Cc1ccc(OC(C(=O)O)C(=O)O)cc1)C(=O)NCCC(c1ccccc1)c1ccccc1` (stereo not drawn) are 9%, 11% and 45%.
On the same counts, the results for `CCCCNC(=O)C(Cc1ccc(OC(C(=O)O)C(=O)O)cc1)NC(=O)CCC(=O)O` (stereo not drawn) are 1%, 5% and 37%.
The compound `CCCCCNC(=O)C(Cc1ccc(OC(C(=O)O)C(=O)O)cc1)NC(=O)CCC(=O)OCc1ccccc1` (stereo not drawn) registered an inhibition in experiment [3] of 39%.
On to `CCCCCNC(=O)C(Cc1ccc(OC(C(=O)O)C(=O)O)cc1)NC(=O)[C@H](COc1ccc(Cc2cc(Cl)ccc2Cl)cc1)NC(=O)OC(C)(C)C` (stereo partly drawn), for which the figures for the inhibition in experiment [1], in experiment [2] and in experiment [3] were 45%, 27% and 85%, respectively.
As to `O=C(O)CCC(=O)NC(Cc1ccc(OC(C(=O)O)C(=O)O)cc1)C(=O)NCc1cccc2ccccc12` (stereo not drawn), the inhibition was 12% in experiment [1], 10% in experiment [2] and 61% in experiment [3].
In the same order, the values of `CCCCCNC(=O)C(Cc1ccc(OC(C(=O)O)C(=O)O)cc1)NC(=O)COCC(=O)O` (stereo not drawn) are 8%, 5% and 53%.
In the same order, the values of `CCCCCNC(=O)[C@H](Cc1ccc(OC(C(=O)O)C(=O)O)cc1)NC(=O)[C@@H](Cc1ccc(C(=O)c2ccccc2)cc1)NC(=O)CCC(=O)O` are 11%, 6% and 54%.
For the compound `CCCCCNC(=O)C(Cc1ccc(OC(CC(=O)O)C(=O)O)cc1)NC(=O)CCC(=O)O` (stereo not drawn), the figures for the inhibition in experiment [1] and in experiment [3] were 4% and 34%, respectively.
Regarding `CCCCCCCCCCNC(=O)C(Cc1ccc(OC(C(=O)O)C(=O)O)cc1)NC(=O)CCC(=O)O` (stereo not drawn), the inhibition in experiment [1] came out at 9%; in experiment [2] it was 4%; in experiment [3] it was 51%.
On to `CCCCCNC(=O)C(Cc1ccc(OC(C(=O)O)C(=O)O)cc1)NC(=O)CC(C)(C)CC(=O)O` (stereo not drawn), for which the values for the inhibition in experiment [1], in experiment [2] and in experiment [3] were 16%, 6% and 67%, respectively.
On the same counts, the results for `CCCCCNC(=O)C(Cc1ccc(OC(C(=O)O)C(=O)O)cc1)NC(=O)CC(=O)O` (stereo not drawn) are 13%, 7% and 74%.
In the same order, the values of `CC(C)CCNC(=O)C(Cc1ccc(OC(C(=O)O)C(=O)O)cc1)NC(=O)CCC(=O)O` (stereo not drawn) are 7%, 5% and 48%.
Turning to `CCCCCNC(=O)C(Cc1ccc(OC(C(=O)O)C(=O)O)cc1)NC(=O)[C@H]1CCCC[C@@H]1C(=O)O` (stereo partly drawn), the inhibition is 10% in experiment [1], 7% in experiment [2] and 72% in experiment [3].
Regarding `O=C(O)CCC(=O)NC(Cc1ccc(OC(C(=O)O)C(=O)O)cc1)C(=O)NCCN1CCCCC1` (stereo not drawn), the figures for the inhibition in experiment [1] and in experiment [3] were 1% and 23%, respectively.
With `CCCCCNC(=O)C(Cc1ccc(O/C(=C/C(=O)O)C(=O)O)cc1)NC(=O)CCC(=O)O` (stereo not drawn), the inhibition in experiment [1] was 5%; in experiment [3] it was 50%.
With `CCCCCNC(=O)C(Cc1ccc(OC(=O)CC(=O)O)cc1)NC(=O)CCC(=O)O` (stereo not drawn), the inhibition was determined as 0% in experiment [1] and 2% in experiment [3].
In the case of `CCCCCNC(=O)C(Cc1ccc(OC(C(=O)O)C(=O)O)cc1)NC(=O)[C@H](Cc1ccc(C(=O)c2ccccc2)cc1)NC(=O)OC(C)(C)C` (stereo partly drawn), the inhibition in experiment [1] was found to be 11%; in experiment [2], 24%; in experiment [3], 91%.
In the same order, the values of `CCCCCNC(=O)C(Cc1ccc(OCC(=O)O)cc1)NC(=O)CCC(=O)O` (stereo not drawn) are 0%, 0% and 14%.
On the same counts, the results for `CCCCCNC(=O)C(Cc1ccc(OC(C(=O)O)C(=O)O)cc1)NC(=O)[C@H]1CCCC[C@H]1C(=O)O` (stereo partly drawn) are 13%, 8% and 62%.
With `O=C(O)CCC(=O)NC(Cc1ccc(OC(C(=O)O)C(=O)O)cc1)C(=O)NCCCN1CCOCC1` (stereo not drawn), the inhibition in experiment [1] turned out to be 2%; in experiment [2], 0%; in experiment [3] it was 35%.
Consider `CCCCCNC(=O)C(Cc1ccc(CC(C(=O)O)C(=O)O)cc1)NC(=O)CCC(=O)O` (stereo not drawn), for which the inhibition in experiment [1] is 3%; in experiment [2], 3%; in experiment [3] it was 34%.
Take `CCCCCNC(=O)C(Cc1ccc(OC(C(=O)O)C(=O)O)cc1)NC(=O)[C@H](CC(=O)O)NC(=O)OCc1ccccc1` (stereo partly drawn): the figures for the inhibition in experiment [1], in experiment [2] and in experiment [3] were 50%, 6% and 90%, respectively.
In turn, `CCCCCNC(=O)C(Cc1ccc(OC(C(=O)O)C(=O)O)cc1)NC(=O)CCC(N)=O` (stereo not drawn) gave an inhibition in experiment [3] of 51%.
Same read-out and setting: the figure for `O=C(O)CCC(=O)NC(Cc1ccc(OC(C(=O)O)C(=O)O)cc1)C(=O)NCCc1ccc(O)cc1` (stereo not drawn) is 43%.
